Reference: US20230075368A1, “IDENTIFICATION OF AN EGFR-BIN3 PATHWAY THAT ACTIVELY SUPPRESSES INVASION AND REDUCES TUMOR SIZE IN GLIOBLASTOMA” (The United States Govemment as represented by the …, priority 2020, published 2023)

What was measured:
STAT1 = experiment: Western blot of pSTAT1 and STAT1; assay type: cell-based, human; conditions: tofacitinib 1 μM, 24 hours; GBM12 and GBM6
Procedure: Mayo PDX cells were serum starved overnight. Following treatment for specific time, cells were harvested and lysed. The human glioblastoma tissues were ground in liquid nitrogen and then were lysed. […] TGFα antibody was from R&D system.
. . . […] A similar experiment was performed in GBM6 (FIG. 18F). […] The Western blot images are representative of three independent biological replicates. Actin served as loading control. Data are represented as mean±SEM from three independent experiments. *P<0.05, **P<0.01, ***P<0.001, unpaired two-tailed t-test.

BIN3 promoter = experiment: ChIP assay of EGR1 occupancy; assay type: cell-based, human; conditions: EGF, 24 hours; GBM12 and GBM6
Procedure: Chromatin immunoprecipitation (ChIP) assays were performed using a ChIP assay kit (Upstate Biotechnology, Lake Placid, N.Y., USA). Cells were treated with or without EGF for the indicated time points or transfected with indicated vectors for 48 hours followed by cell fixation, lysis, chromatin shearing, antibody incubation and washing according to the manufacturer's protocol. ChIP grade anti-EGR1 (4153) or anti-Nanog antibody (5232) antibody from Cell Signaling Technology (Danvers, Mass.) was used to selectively precipitate the corresponding protein-DNA complex. RT-PCR was performed using ViiA 7 Real-Time PCR System (Applied Biosystems) to measure the relative amounts of ChIP DNA and results were quantified relative to inputs. The data are expressed as percentage of input. Following are primer sets: BIN3_Forward: 5′-[…]-3′ (SEQ ID NO:1); BIN3_Reverse: 5′-[…]-3′ (SEQ ID NO:2); EMP1_Forward: 5′-[…]-3′ (SEQ ID NO:3); EMP1_Reverse: 5′-[…]-3′ (SEQ ID NO:4).
Referring to FIG. 8A-D, EGF induces EGR1 activity and enrichment on the BIN3 promoter. […] Cells were transiently transfected with EGR1 firefly luciferase reporter vector and Renilla luciferase vector for 48 hours, EGF was added for additional 2 or 24 hours prior to measuring luciferase activity. […] Cells were treated with or without EGF for 24 hours. ChIP assay was performed as described elsewhere herein. IgG was used as negative control. […]

DOCK7 = experiment: GEF activity of DOCK7 (Cdc42 G15A agarose pull down); assay type: cell-based, human; conditions: EGF, 24 hours; GBM12 and GBM6
Procedure: To measure GEF activity of DOCK7, cell lysates were incubated with 40 μl Cdc42 G15A agarose beads (ab211185, Abcam) at 4° C. for 1 hour. The agarose beads were then washed boiled and the supernatants were used to immunoblot with DOCK7 antibody to determine levels of active DOCK7.

GBM12 cells = experiment: Intravital microscopy of GBM cell motility through cranial window; assay type: in vivo, mice; conditions: 10 ng EGF injected through cranial window 24 hours before imaging
Procedure: Two-photon laser intravital microscope combined with cranial window surgery was used to observe cellular movement in vivo. Female athymic nude mice were anesthetized with 2.5% isoflourane and secured in a stereotactic frame. The head was shaved and the scalp was cut in a circular manner. The periosteum was scraped and a drill was used to create a circular cranial window over the front and parietal bone. 10 μL of 1×10^6 cells/ml GBM12 stably expressing H2B-GFP were implanted at a depth of 0.5 mm. Following implantation, a 5 mm silicone-based polydimethylsiloxane (PDMS) coverslip was glued to the bone surrounding the cranial window. PDMS (SYLGARD184, Sigma-Aldrich) film was prepared as described by Heo et al. (Heo, et al. (2016) A soft, transparent, freely accessible cranial window for chronic imaging and electrophysiology, Sci Rep 6: 27818). PDMS coverslip allows for easy insertion of Hamilton needle into the brain tissue for EGF delivery. Dental cement was applied on the skull surface, covering the edge of the coverslip. Seven days after surgery and 24 hours prior to imaging procedure, 10 ng EGF or vehicle was injected into the mice brain through cranial window. […]
Referring to FIG. 14A and FIG. 14B, EGF reduces cell migration speed in vivo detected by intravital microscopy. […] The cell velocity of around 200 cells per mouse were evaluated. […]

Row | EGR1 occupancy of BIN3 promoter (BIN3 promoter) | Compound | phosphorylation of STAT1 (STAT1) | DOCK7 activity (DOCK7) | movement of glioma cells in live mouse brain (GBM12 cells)
1 | – | C[C@@H]1CCN(C(=O)CC#N)C[C@@H]1N(C)c1ncnc2[nH]ccc12 [tofacitinib] | blocks phosphorylation | – | –
2 | occupies the BIN3 promoter | EGF: Recombinant human EGF (AF-100) from Peprotech; EGFR ligand | – | decreased activity | almost complete cessation of movement
